Assay results: the NIST ThermoML archive (doi:10.1021/je700139p)
Numbers after ± are expanded uncertainties.

Experiment: activity coefficient (dimensionless); of the first substance listed, at infinite dilution; xn = mol fraction of the nth substance listed
Conditions: 101 kPa, Liquid, Chromatography, x1 = 0

| SMILES | activity coefficient (333.15 K) | activity coefficient (343.15 K) | activity coefficient (353.15 K) | activity coefficient (363.15 K) | activity coefficient (373.15 K) |
| --- | --- | --- | --- | --- | --- |
| Cc1ccccc1C [1,2-dimethylbenzene] + O=S1(=O)CCCC1 | 4.57 ± 0.31 | 4.39 ± 0.3 | 4.28 ± 0.29 | 4.17 ± 0.28 | 4.04 ± 0.28 |
| Cc1cccc(C)c1 [1,3-dimethylbenzene] + O=S1(=O)CCCC1 | 5.35 ± 0.36 | 5.13 ± 0.35 | 4.98 ± 0.34 | 4.77 ± 0.33 | 4.65 ± 0.32 |
| Cc1ccc(C)cc1 [1,4-dimethylbenzene] + O=S1(=O)CCCC1 | 5.51 ± 0.38 | 5.25 ± 0.36 | 5.11 ± 0.35 | 4.88 ± 0.33 | 4.76 ± 0.32 |
| CCCCCCC [heptane] + O=S1(=O)CCCC1 | 60.3 ± 4.1 | 53.1 ± 3.6 | 47.6 ± 3.3 | 41.2 ± 2.8 | 38.5 ± 2.6 |
| CCCCCCCC [octane] + O=S1(=O)CCCC1 | 80.7 ± 5.5 | 70.5 ± 4.8 | 61.7 ± 4.2 | 54.3 ± 3.7 | 48.6 ± 3.3 |
| Cc1ccccc1 [toluene] + O=S1(=O)CCCC1 | 3.46 ± 0.23 | 3.38 ± 0.23 | 3.29 ± 0.22 | 3.23 ± 0.22 | 3.2 ± 0.22 |

More lines, now with the values ahead:

| activity coefficient (333.15 K) | activity coefficient (343.15 K) | activity coefficient (353.15 K) | activity coefficient (363.15 K) | activity coefficient (373.15 K) | SMILES |
| --- | --- | --- | --- | --- | --- |
| 2.32 ± 0.16 | 2.3 ± 0.16 | 2.28 ± 0.15 | 2.26 ± 0.15 | 2.25 ± 0.15 | c1ccccc1 [benzene] + O=S1(=O)CCCC1 |
| 147 ± 10 | 126 ± 8.6 | 107 ± 7.3 | 92.2 ± 6.3 | 79.8 ± 5.5 | CCCCCCCCCC [decane] + O=S1(=O)CCCC1 |
| 4.82 ± 0.33 | 4.65 ± 0.32 | 4.48 ± 0.3 | 4.35 ± 0.3 | 4.26 ± 0.29 | CCc1ccccc1 [ethylbenzene] + O=S1(=O)CCCC1 |
